Usually pIC50 stands for −log10 of the IC50, conventionally taken in molar units. Read a high pIC50 as a low IC50.

pIC50: −log10 of the molar value. Where a name gives a salt, the structure may show the parent alone. Read-outs that look alike come from different tables or passages of the source.

One test addresses T1, β-lactamase P99 (Enterobacter cloacae, UniProt P05364).
T1 construct: The β-lactamases are isolated from bacterial strains resistant to penicillins and to cephalosporins; endogenous in cells; host or cells: Enterobacter cloacae 293HT6, soluble fraction of French-press lysate
The test can be described thus: Inhibitory activity for β-lactamases (nitrocefin hydrolysis). The class given is biochemical. Particulars: for IC50: after 5 min of preincubation with the enzyme, 100 μM nitrocefin, 50 mM sodium phosphate buffer pH 7.0, 37° C., read-out: IC50 nM/P99. As to the method: (§1) II/Inhibitory Activity for β-Lactamases
(§2) A. Preparation of the β-Lactamases Tem-1 and P99
(§3) The β-lactamases are isolated from bacterial strains resistant to penicillins and to cephalosporins (Tem1 and P99 are produced respectively by E. coli 250HT21 and E. Cloacae 293HT6).
(§4) The bacteria are cultured in 37 g/l brain-heart broth (DIFCO) at 37° C. They are harvested in the exponential phase, cooled and centrifuged. The bacterial pellets are taken up in 50 mM sodium phosphate buffer, pH 7.0, and are again centrifuged. The bacteria are taken up in two volumes of the same buffer and lyzed using a French press maintained at 4° C. After centrifuging for 1 h at 100 000 g at 4° C., the supernatants comprising the soluble fraction of the bacterial extracts are recovered and frozen at −80° C.
(§5) B. Determination of the β-Lactamase Activity
(§6) The method uses nitrocefin (Oxoid), a chromogenic cephalosporin, the product of hydrolysis by β-lactamases of which is red and absorbed at 485 nm, as substrate. The β-lactamase activity is determined kinetically by the measurement, on a plate spectrophotometer (Spectra Max Plus from Molecular Devices), of the variation in absorbance at 485 nm resulting from the hydrolysis of the substrate. The experiments are carried out at 37° C. The amount of enzyme was standardized and the measurements are carried out at the initial rate.
(§7) C. Determination of the Inhibitory Activity for β-Lactamases
(§8) Two measurements are carried out, without preincubation and with preincubation of the enzyme and of the inhibitor (5 min), in order to test the irreversibility of the reaction. The products are tested at 6 or 8 concentrations in duplicate. The reaction mixture comprises 100 μM nitrocefin and 50 mM sodium phosphate buffer, pH 7.0.
(§9) D. Calculations of the IC50 Values
(§10) The rates of hydrolysis are measured with and without inhibitor. The concentration of inhibitor which inhibits by 50% the reaction for the hydrolysis of nitrocefin by the enzyme is determined (IC50). The processing of the data is carried out using GraFit software (Erathycus Software).

A further test concerns the target T2, β-lactamase Tem-1 (Escherichia coli, UniProt P62593).
T2 construct: The β-lactamases are isolated from bacterial strains resistant to penicillins and to cephalosporins; endogenous in cells; host or cells: E. coli 250HT21, soluble fraction of French-press lysate
Described as above. The format is biochemical, E. coli 250HT21. Particulars: for IC50: after 5 min of preincubation with the enzyme, 100 μM nitrocefin, 50 mM sodium phosphate buffer pH 7.0, 37° C., read-out: IC50 nM/TEM1. As to the method: as §1, §2, §3, §4, §5, §6, §7, §8, §9, §10

T1 sequence (P05364 21-381): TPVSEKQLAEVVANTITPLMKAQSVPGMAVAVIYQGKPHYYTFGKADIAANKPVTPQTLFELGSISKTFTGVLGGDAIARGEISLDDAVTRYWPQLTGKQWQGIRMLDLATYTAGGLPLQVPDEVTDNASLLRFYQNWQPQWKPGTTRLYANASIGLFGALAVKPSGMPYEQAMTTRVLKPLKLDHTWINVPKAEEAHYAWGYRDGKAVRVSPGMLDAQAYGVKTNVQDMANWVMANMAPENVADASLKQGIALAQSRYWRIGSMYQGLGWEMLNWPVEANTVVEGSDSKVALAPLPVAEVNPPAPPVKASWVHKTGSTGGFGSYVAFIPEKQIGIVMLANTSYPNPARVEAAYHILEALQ
T2 sequence (P62593 24-286 limits assumed): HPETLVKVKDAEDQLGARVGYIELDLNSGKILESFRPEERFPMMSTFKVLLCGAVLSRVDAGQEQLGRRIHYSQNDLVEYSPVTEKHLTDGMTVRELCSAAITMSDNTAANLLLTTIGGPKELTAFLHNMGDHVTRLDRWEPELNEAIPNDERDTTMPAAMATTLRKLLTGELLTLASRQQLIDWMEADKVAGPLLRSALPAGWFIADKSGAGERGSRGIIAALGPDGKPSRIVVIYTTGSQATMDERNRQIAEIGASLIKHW

`CS(=O)(=O)N1c2ccccc2C2CN1C(=O)N2OCC(=O)O` (stereo not shown) [Example 5, N-(1-Methylethyl)-2-propanaminium salt of [[1,5-dihydro-1-(methylsulfonyl)-3-oxo-2,5-methano-2H-1,2,4-benzotriazepin-4(3H)-yl]oxy]acetic acid]: the pIC50 is 3.34 against β-lactamase P99 and 3.24 against β-lactamase Tem-1.
On to `O=C(O)CON1C(=O)N2CC1c1ccccc1N2C(=O)NC(=O)c1ccccc1` (stereo not shown) [Example 7, N-(1-Methylethyl)-2-propanaminium salt of [[1-[(benzoylamino)carbonyl]-1,5-dihydro-3-oxo-2,5-methano-2H-1,2,4-benzotriazepin-4(3H)-yl]oxy]acetic acid], for which the pIC50 against β-lactamase P99 is 4.20; against β-lactamase Tem-1, 3.96.
On to `O=C(O)CON1C(=O)N2CC1c1ccccc1N2C(=O)NS(=O)(=O)c1ccccc1` (stereo not shown) [Example 9, Bis[N-(1-methylethyl)-2-propanaminium] salt of [[1,5-dihydro-3-oxo-1-[[(phenylsulfonyl)amino]carbonyl]-2,5-methano-2H-1,2,4-benzotriazepin-4(3H)-yl]oxy]acetic acid], for which the pIC50 against β-lactamase P99 was 3.74; on β-lactamase Tem-1, 3.80.
The matching figures for `O=C(O)CON1C(=O)N2CC1c1ccccc1N2` (stereo not shown) [Example 11, N-(1-Methylethyl)-2-propanaminium salt of [(1,5-dihydro-3-oxo-2,5-methano-2H-1,2,4-benzotriazepin-4(3H)-yl)oxy]acetate acid]: 4.82 and 4.85.
As for `C=CCON1C(=O)N2CC1c1ccccc1N2Cc1cccnc1` (stereo not shown) [Example 14, 4,5-Dihydro-4-(2-propenyloxy)-1-(3-pyridinylmethyl)-2,5-methano-2H-1,2,4-benzotriazepin-3(1H)-one], the figures for the IC50 at β-lactamase P99 and on β-lactamase Tem-1 were 17000 nM and 26000 nM, respectively.
As to `C=CCON1C(=O)N2CC1c1ccccc1N2C(=O)NS(=O)(=O)c1ccccc1` (stereo not shown) [Example 15, 4,5-Dihydro-3-oxo-N-(phenylsulfonyl)-4-(2-propenyloxy)-2,5-methano-2H-1,2,4-benzotriazepin-1(3H)-carboxamide], the IC50 at β-lactamase P99 was 110000 nM; on β-lactamase Tem-1, 450000 nM.
The matching figures for `CCOC(=O)CN1c2ccccc2C2CN1C(=O)N2OS(=O)(=O)O` (stereo not shown) [Example 27, Sodium Salt of Ethyl 4,5-dihydro-3-oxo-4-(sulfoxy)-2,5-methano-2-H-1,2,4-benzotriazepine-1(3H)-acetate]: 530 nM and 7500 nM.
For the compound `CN1c2ccccc2C2CN1C(=O)N2OS(=O)(=O)O` (stereo not shown) [Example 28, Sodium salt of 4,5-dihydro-1-methyl-4-(sulfooxy)-2,5-methano-2H-1,2,4-benzotriazepin-3(1H)-one], the IC50 stood at 37000 nM on β-lactamase P99 and 12000 nM on β-lactamase Tem-1.

(Values after patent publication US7365071B2, “Heterocyclic compounds, preparation process and intermediates, and use as medicaments, in particular as β-lactamase inhibitors and antibacterials” (priority 2002, dated 2008).)
